We go through one sequence from publication PMC7502707, “Characterization and validation of a preventative therapy for hypertrophic cardiomyopathy in a murine model of the disease” (Proceedings of the National Academy of Sciences of the …, 2020).

In one data set the test system is wt and cTnI-G203S mice. Nature of the data set: Toxicity parameters: terminal serum urea, creatinine, ALT, AST and body weight. The data set is classed as in vivo, mouse. As for the experimental part: Mice were treated with 10 μM AID(S)-TAT or AID-TAT 3×/wk/5 wk (equaling 15 doses). BW was recorded prior to administration of each peptide dose, and reported as a percentage of day 1 BW. A 5 to 10% reduction in BW directed increased monitoring as recommended by The Animal Ethics Committee of The University of Western Australia in accordance with the 2008 Guidelines to Promote the Wellbeing of Animals Used for Scientific Purposes ([65]). Following completion of treatment regimen, mice were anesthetized and terminal blood collected. Serum was extracted and used to measure kidney and liver toxicity as previously described ([66]). Detailed methods are provided in SI Appendix.
Echocardiographic measurement of left ventricular function were performed on mice under light methoxyflurane anesthesia using an i13L probe on a Vivid 7 Dimension ultrasound system (GE Healthcare, Little Chalfont, United Kingdom) as previously described (4, 7). Echocardiographic measurements were taken on M-mode in triplicate from separate mice at a sweep speed of 200 mm/s. Each n represents the average of quantitative measurements from wt or cTnI-G203S mice for each treatment group. Measurements of left ventricular end diastolic diameter (LVEDD), left ventricular end systolic diameter (LVESD), fractional shortening (FS), left ventricular posterior wall in diastole (LVDPW), left ventricular posterior wall in systole (LVSPW), interventricular septum in diastole (IVSD), interventricular septum in systole (IVSS) and end diastolic diameter (EDD) were made. FS was calculated by the formula [(LVEDD-LVESD)/EDD] x 100.
Cell size was determined as previously described (16). […]
To measure kidney toxicity, urea and creatinine concentration was assessed using QuantiChrom Urea and Creatinine assay kits respectively (BioAssay Systems, Hayward CA). To measure liver toxicity, alanine transaminase (ALT) and aspartate transaminase (AST) concentration was measured using Alanine Transaminase and Aspartate Transaminase assay kits respectively (BioAssay Systems, Hayward CA). […]

Another data set has as its system BALB/c nude mice. The following applies: mouse, in vivo. How it is done:
Eight-week-old male BALB/c nude mice were used to assess in vivo cardiac uptake and bio-distribution of sulfo-Cyanine7-labeled AID(S)-TAT and AID-TAT (Cy7, W&J PharmaChem) using a CRi Maestro 2 multispectral imaging system (Cambridge Research and Instrumentation) based on previously described methods ([63]). All studies were performed in mice anesthetized with isoflurane (2 to 4%), followed by intraperitoneal injection of pentobarbitone sodium (240 mg/kg), as approved by the Animal Ethics Committee of The University of Western Australia in accordance with the 2013 Australian Code for the Care and Use of Animals for Scientific Purposes ([58]). Detailed methods are provided in SI Appendix.
50 ms, Molecular Probes, Eugene, Oregon) (5). Cells were incubated in calcium-free HBS (supplemented with 3 mM EGTA and 200 nM JC-1) for at least 3 h prior to measuring changes in Ψm. Sodium cyanide (NaCN, 40 mM, mitochondrial electron transport blocker) was added at the end of each experiment to collapse Ψm, confirming that the JC-1 signal was indicative of Ψm.
Additionally, individual 580 nm and 535 nm wavelength signals were assessed in each experiment to determine whether the fluorescent indicator was accurately measuring Ψm. […] Ratiometric JC-1 or flavoprotein fluorescent signals were quantified by manually tracing myocytes and subtracting an equivalent background region […]

[1] abbreviates: terminal serum, 10 μM 3×/wk/5 wk.

Consider QQLEEDLKGYLDWITQAE [AID-TAT], for which the “body weight over the course of treatment” value in the data set with wt and cTnI-G203S mice (15 doses, % of day 1 BW) is listed as “no significant reduction”. For the same sequence, in the data set on wt and cTnI-G203S mice (setting [1]), the “kidney toxicity: serum urea and creatinine” value is “No significant alterations”; the “liver toxicity: serum ALT and AST” value was “No significant alterations”. Besides, the “Cy7 decay (clearance) in left or right kidney, or liver” value with BALB/c nude mice is “no significant difference”.
